Measured values published in PMC7044277 (Nature Communications, 2020).
Values joined by “and” are separate entries in the source; they are usually repeats but may differ in a detail not shown here. Equal entries are not always repeated.

What was measured:
DRD3 = DRD3 (Homo sapiens, UniProt P35462); experiment: β-arrestin2 recruitment (Tango); assay type: cell-based
DRD4 (D4.4 variant) = target: T1, DRD4 (D4.4 variant) (Homo sapiens, UniProt P21917); experiment: β-arrestin2 recruitment (Tango); assay type: cell-based; conditions: for Fig_S10c concentration-response source data, compound alone (replicates): agonist mode
T1 sequence (P21917 1-419): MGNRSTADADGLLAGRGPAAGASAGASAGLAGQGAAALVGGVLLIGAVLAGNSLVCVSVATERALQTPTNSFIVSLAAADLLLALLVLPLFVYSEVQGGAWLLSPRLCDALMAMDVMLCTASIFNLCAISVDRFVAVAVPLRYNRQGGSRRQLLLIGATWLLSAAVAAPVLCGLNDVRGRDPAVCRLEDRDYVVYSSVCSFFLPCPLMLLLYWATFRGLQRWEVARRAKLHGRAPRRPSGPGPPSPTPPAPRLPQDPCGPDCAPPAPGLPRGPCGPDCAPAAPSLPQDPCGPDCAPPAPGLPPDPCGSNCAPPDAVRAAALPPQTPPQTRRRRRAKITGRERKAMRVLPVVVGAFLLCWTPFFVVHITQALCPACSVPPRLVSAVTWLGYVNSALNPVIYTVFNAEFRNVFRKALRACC

[1] = test system: serotonin receptor (subtype not given; reference agonist serotonin); experiment: β-arrestin2 recruitment (Tango), agonist activity, source data Fig_S10l; assay type: cell-based, human; conditions: drug alone
[2] = test system: serotonin receptor (subtype not given; reference agonist serotonin); experiment: β-arrestin2 recruitment (Tango), agonist activity, source data Fig_S10m; assay type: cell-based, human; conditions: drug alone
[3] = test system: serotonin receptor of Fig_S10i (subtype not given); experiment: β-arrestin2 recruitment (Tango), agonist activity, source data Fig_S10i; assay type: cell-based, human; conditions: drug alone
DRD2 F1103.28A = DRD2 F1103.28A (Homo sapiens, UniProt P14416, F110A); experiment: β-arrestin2 recruitment (Tango), mutant; assay type: cell-based; set-up: expressed in transfected cells; host or cells: HEK293T (ATCC CRL-11268)
Chain of DRD2 F1103.28A (P14416 whole entry F110A): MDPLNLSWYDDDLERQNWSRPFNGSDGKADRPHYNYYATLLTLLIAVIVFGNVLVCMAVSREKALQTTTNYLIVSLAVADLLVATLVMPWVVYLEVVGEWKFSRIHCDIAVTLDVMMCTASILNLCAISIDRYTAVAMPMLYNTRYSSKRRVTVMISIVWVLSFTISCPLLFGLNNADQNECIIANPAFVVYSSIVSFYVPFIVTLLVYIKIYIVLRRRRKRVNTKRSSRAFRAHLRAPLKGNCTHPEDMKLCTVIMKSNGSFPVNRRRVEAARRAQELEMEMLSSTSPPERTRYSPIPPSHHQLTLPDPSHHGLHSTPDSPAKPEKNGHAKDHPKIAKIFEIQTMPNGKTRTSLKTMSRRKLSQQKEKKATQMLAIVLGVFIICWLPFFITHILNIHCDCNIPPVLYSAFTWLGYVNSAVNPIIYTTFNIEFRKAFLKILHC

Chain of DRD3 (P35462 whole entry): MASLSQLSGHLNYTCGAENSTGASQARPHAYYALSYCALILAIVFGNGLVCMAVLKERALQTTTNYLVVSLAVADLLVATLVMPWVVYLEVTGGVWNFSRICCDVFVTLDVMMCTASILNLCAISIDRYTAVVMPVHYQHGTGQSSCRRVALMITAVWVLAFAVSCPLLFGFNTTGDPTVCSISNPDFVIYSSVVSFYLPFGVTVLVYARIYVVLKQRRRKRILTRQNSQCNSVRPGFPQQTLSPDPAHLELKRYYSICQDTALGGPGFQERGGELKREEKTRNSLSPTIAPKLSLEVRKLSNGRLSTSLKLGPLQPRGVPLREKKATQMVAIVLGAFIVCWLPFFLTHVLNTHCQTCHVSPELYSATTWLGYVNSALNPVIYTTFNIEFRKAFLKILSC

CCOc1cccc2cc([C@@H](C)NCC3(O)CCCCC3)oc12 [O4RE6]
β-arrestin2 recruitment response at DRD3 (source data, replicate values) (DRD3; Log[Drug] -8.52): 2.856 and 3.025 and 3.1562 and 3.299 and 3.446 and 1.2903 and 3.595 | β-arrestin2 recruitment response at DRD3 (source data, replicate values) (DRD3; Log[Drug] -9): 2.899 and 3.295 and 4.17 and 2.956 and 3.124 and 0.2993 and 1.159 | β-arrestin2 recruitment response at DRD3 (source data, replicate values) (DRD3; Log[Drug] -9.52): 2.775 and 2.952 and 4.646 and 3.025 and 2.94 and 0.3512 and -0.2025 | β-arrestin2 recruitment response at DRD3 (source data, replicate values) (DRD3; Log[Drug] -10): 2.803 and 3.9395 and 2.8785 and 2.928 and 3.403 and 1.077 and 2.238 | β-arrestin2 recruitment response at DRD3 (source data, replicate values) (DRD3; Log[Drug] -10.52): 5.884 and 3.155 and 4.6156 and 3.056 and 2.943 and 1.1541 and 0.8548 | β-arrestin2 recruitment response at DRD3 (source data, replicate values) (DRD3; Log[Drug] -11): 3.18 and 2.961 and 3.126 and 2.927 and 2.942 and 0.5878 and 2.511 | β-arrestin2 recruitment response at DRD3 (source data, replicate values) (DRD3; Log[Drug] -11.52): 2.6928 and 2.862 and 2.962 and 3.132 and 3.725 and -0.276 and 0.7993 | Emax (DRD3; read-out: Emax relative to quinpirole response, DRD3, Tango): 21.4% | EC50 (DRD4 (D4.4 variant); DRD4, Tango, read-out: EC50 ± SEM): > 10 µM | β-arrestin2 recruitment response at DRD4 (source data, replicate values) (DRD4 (D4.4 variant); Log[Drug] -5): 6.217 and 2.763 and 2.001 and 1.287 and 1.775 and 4.058 and 4.003 and 0.06427 and 0.2106 | Fig_S10c concentration-response source data, compound alone (replicates) (DRD4 (D4.4 variant); Log[Drug] -5): 5.394 and 8.31 and 11.4353 and 9.275 and 2.582 and 4.074 and 8.729 and 7.933 and 14.0378 | β-arrestin2 recruitment response at DRD4 (source data, replicate values) (DRD4 (D4.4 variant); Log[Drug] -5.52): 2.6039 and -1.106 and -1.946 and -0.4701 and 1.404 and 2.39 and 0.8979 and 0.0552 and 0.08381 | Fig_S10c concentration-response source data, compound alone (replicates) (DRD4 (D4.4 variant); Log[Drug] -5.52): 1.202 and 2.837 and 2.321 and 1.635 and 2.366 and 3.787 and 1.627 and 3.207 and 0.6688 | β-arrestin2 recruitment response at DRD4 (source data, replicate values) (DRD4 (D4.4 variant); Log[Drug] -6): 3.584 and -1.188 and -0.584 and -0.6588 and 0.8796 and 1.83 and 0.7762 and 0.03516 and 0.171 | Fig_S10c concentration-response source data, compound alone (replicates) (DRD4 (D4.4 variant); Log[Drug] -6): 2.086 and 2.7849 and 3.425 and -0.09437 and 0.02849 and 3.5238 and 0.3966 and 3.288 and 1.462 | β-arrestin2 recruitment response at DRD4 (source data, replicate values) (DRD4 (D4.4 variant); Log[Drug] -6.52): 1.007 and 4.325 and 1.323 and -0.8974 and 1.527 and -0.05366 and -0.1047 and 0.03541 and 0.08444 | Fig_S10c concentration-response source data, compound alone (replicates) (DRD4 (D4.4 variant); Log[Drug] -6.52): 1.505 and 1.478 and 5.593 and -1.936 and -0.8155 and 0.5983 and 2.508 and 1.037 and -0.4712 | β-arrestin2 recruitment response at DRD4 (source data, replicate values) (DRD4 (D4.4 variant); Log[Drug] -7): 1.079 and -1.731 and -1.221 and -1.369 and 0.6898 and 0.678 and 1.948 and 0.1059 and 0.1355 | Fig_S10c concentration-response source data, compound alone (replicates) (DRD4 (D4.4 variant); Log[Drug] -7): 2.288 and 4.238 and 0.7634 and -1.02 and 3.3404 and -2.026 and 1.575 and 0.945 and -0.6741 | β-arrestin2 recruitment response at DRD4 (source data, replicate values) (DRD4 (D4.4 variant); Log[Drug] -7.52): 0.371 and -1.716 and -1.784 and -0.5805 and -0.6243 and 1.534 and -0.4267 and 0.02533 and 0.04436 | β-arrestin2 recruitment response at DRD4 (source data, replicate values) (DRD4 (D4.4 variant); Log[Drug] -8): 0.8799 and -0.7087 and -1.711 and -1.318 and -0.195 and -0.3626 and 1.952 and 0.0707 and 0.1967 | β-arrestin2 recruitment response at DRD4 (source data, replicate values) (DRD4 (D4.4 variant); Log[Drug] -8.52): 1.656 and -1.517 and -1.8 and 0.5698 and 0.5353 and -0.6701 and 0.003927 and 0.031 and 0.0242 | β-arrestin2 recruitment response at DRD4 (source data, replicate values) (DRD4 (D4.4 variant); Log[Drug] -9): 0.08244 and -0.5912 and 1.416 and -2.021 and 1.101 and 0.6872 and 0.9463 and -0.03415 and 0.05621 | β-arrestin2 recruitment response at DRD4 (source data, replicate values) (DRD4 (D4.4 variant); Log[Drug] -10.52): 2.403 | β-arrestin2 recruitment response at DRD4 (source data, replicate values) (DRD4 (D4.4 variant); Log[Drug] -11): 4.161 and -1.784 and -1.43 and 0.349 and 0.8023 and -0.5301 and 2.686 and -0.07952 and -0.04373 | β-arrestin2 recruitment response at DRD4 (source data, replicate values) (DRD4 (D4.4 variant); Log[Drug] -11.52): 0.6452 and -1.9266 and -1.439 and -0.7995 and -0.6204 and 1.59 and -0.483 and -0.008444 and -0.04903 | response, Fig_S10l, replicate values ([1]; Log[Drug] -6.52): -3.85 | response, Fig_S10l, replicate values ([1]; Log[Drug] -7): -18.1455 and -1.053 and 5.44 and -6.097 and -0.7764 and -1.627 and 21.5386 and -8.446 and -23.0116 | response, Fig_S10l, replicate values ([1]; Log[Drug] -7.52): 10.4314 and -7.0535 and -12.5511 and -5.4086 and -2.507 and -5.8801 and -14.9973 and 5.012 and -22.748 | response, Fig_S10l, replicate values ([1]; Log[Drug] -8): -3.494 and -0.9897 and -1.101 and -6.133 and 9.37 and -6.103 and -6.764 and -19.0522 and -18.9699 | response, Fig_S10l, replicate values ([1]; Log[Drug] -8.52): -14.6079 and -9.137 and 0.1161 and -2.858 and 0.4788 and -6.718 and 5.642 and 9.781 and -19.7014 | response, Fig_S10l, replicate values ([1]; Log[Drug] -9): -7.429 and -0.8033 and 2.514 and -1.371 and -2.511 and 6.172 and -12.5406 and 13.3677 and 9.079 | response, Fig_S10l, replicate values ([1]; Log[Drug] -9.52): -7.024 and -4.6241 and 4.382 and 5.183 and -6.777 and -3.91 and -13.0464 and 1.094 and -1.351 | response, Fig_S10l, replicate values ([1]; Log[Drug] -10): -1.517 and -3.218 and -6.7099 and 1.544 and 10.647 and -1.892 and 3.1372 and 12.1979 and 15.1176 | response, Fig_S10l, replicate values ([1]; Log[Drug] -10.52): 7.131 and -7.271 and -11.3727 and 2.195 and -7.95 and -8.5307 and 3.862 and 0.6607 and 18.5102 | response, Fig_S10l, replicate values ([1]; Log[Drug] -11): 7.402 and 9.101 and -6.117 and -2.283 and 7.1162 and 16.1339 and -5.988 and 21.1185 and -1.691 | response, Fig_S10l, replicate values ([1]; Log[Drug] -11.52): 20.0426 and 4.341 and -34.8779 and 9.958 and -2.256 and -5.643 and 0.02142 and 3.842 and -14.699 | response, Fig_S10l, replicate values ([1]; Log[Drug] -12): 1.452 and 8.392 and -9.8386 and -3.912 and 6.115 and -2.202 and -0.8107 and 10.4431 and -9.6291 | response, Fig_S10m, replicate values ([2]; Log[Drug] -10): 2.7529 and -0.4377 and -1.97 and -0.5261 and 1.876 and -0.04315 and 3.796 and 2.966 and 1.035 | response, Fig_S10m, replicate values ([2]; Log[Drug] -10.52): 0.7688 and 0.004826 and -2.114 and 0.954 and 0.8686 and -0.8567 and -0.09082 and -0.6687 and 2.414 | response, Fig_S10m, replicate values ([2]; Log[Drug] -11): 1.778 and -1.268 and 4.058 and 1.198 and 1.567 and 2.185 and -0.6818 and -1.429 and -2.744 | response, Fig_S10m, replicate values ([2]; Log[Drug] -11.52): -1.448 and 1.084 and -0.9329 and 1.724 and -0.9384 and 3.221 and 2.656 and 0.1211 and -2.648 | response, Fig_S10m, replicate values ([2]; Log[Drug] -12): 3.008 and 0.9208 and 2.0444 and 1.398 and -0.9127 and 1.032 and 3.604 and 5.24 and 4.003 | response, single replicates of the concentration-response curve ([3]; Log[Drug] -11.52): 7.932 and 1.922 and 1.39 and -3.959 and 2.237 and 14.8084 and -5.287 and -16.0867 and 8.333 | response, single replicates of the concentration-response curve ([3]; Log[Drug] -12): 7.248 and 11.8909 and -3.039 and -4.844 and 11.7663 and -11.164 and 10.085 and 0.6399 and 4.277 | EC50 (DRD2 F1103.28A): > 10 µM
